In PubChem BioAssay (NCI) one finds GI50 and TGI data, which are given here for 14 molecules.

Several values for one entry are separate records, joined by “and”; a condition that tells them apart may be missing. Identical values can stand only once.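 Method: 48-hour compound exposure of cells in 96-well plates, five concentrations, linear interpolation of endpoints. GI50 is the concentration that inhibits growth by half. Definition used: TGI = concentration required for complete inhibition of growth.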

By GI50 is commonly meant the concentration at which growth is held to half of that of the control. One may read the TGI as the concentration at which net growth stops. Lower therefore signals more potent growth arrest.

Among the test systems are BT-549 breast; DU-145 prostate; MCF7 breast; MDA-MB-435; NCI/ADR-RES ovarian.
Holding throughout (experiment): DTP human tumour cell line panel, 48 h

Consider `COCCOC(=O)CCn1cc(F)c(=O)[nH]c1=O`, for which the GI50 with BT-549 breast was 16.2 µg/mL; in the assay on DU-145 prostate, 5.57 µg/mL; in the assay on MCF7 breast it was 1.13 µg/mL; with MDA-MB-435, 5.67 µg/mL; with NCI/ADR-RES ovarian, 46.4 µg/mL. Also, the TGI with BT-549 breast, with DU-145 prostate, with MCF7 breast, in the assay on MDA-MB-435 and with NCI/ADR-RES ovarian was above 150 µg/mL in each case.
As to `COc1cc(Nc2ncc(-c3ccccc3)o2)cc(OC)c1OC`, the GI50 in the assay on BT-549 breast is 3.24 µM; in the assay on DU-145 prostate it was 5.98 µM; in the assay with MCF7 breast, 0.0695 µM; with MDA-MB-435, 0.154 µM; in the assay on NCI/ADR-RES ovarian it was 1.38 µM. Besides, the TGI with BT-549 breast is above 25 µM; in the assay on DU-145 prostate, above 25 µM; in the assay on MCF7 breast, above 25 µM; in the assay with MDA-MB-435 it was above 5.89 µM; in the assay with NCI/ADR-RES ovarian, above 25 µM.
Consider `CCc1ccc(/C=C2/SC(=S)NC2=O)cc1`, for which the GI50 was 20.9 µM with BT-549 breast; 38.6 µM with DU-145 prostate; 21.2 µM in the assay on MCF7 breast; 27.5 µM in the assay on MDA-MB-435; 25.3 µM in the assay on NCI/ADR-RES ovarian. Further, the TGI in the assay with BT-549 breast is 58.2 µM; with DU-145 prostate, above 100 µM; in the assay on MCF7 breast, above 85.5 µM; in the assay with MDA-MB-435 it was above 100 µM; in the assay on NCI/ADR-RES ovarian it was 89.4 µM.
With `CN(C)c1ccc(/C=N/Nc2ccc(-c3nc4ccccc4[nH]3)cc2)cc1`, the GI50 in the assay on BT-549 breast was 12.4 µM; in the assay with DU-145 prostate, 37.8 µM; in the assay on MCF7 breast, 8.44 µM; with MDA-MB-435, 8.25 µM; with NCI/ADR-RES ovarian, 10.7 µM. Besides, the TGI in the assay on BT-549 breast is 35.5 µM; in the assay on DU-145 prostate, above 50 µM; in the assay on MCF7 breast, 35.6 µM; in the assay on MDA-MB-435, above 50 µM; in the assay with NCI/ADR-RES ovarian it was 32 µM.
`CC(=O)OCC1OC(O[C@@H]2C[C@H]3C(C)(C)[C@H](OC(C)=O)CC[C@]3(C)[C@H]3CC[C@@H]4[C@]5(CC[C@@]4(C)[C@@]32C)O[C@@H]([C@H](O)C(C)(C)O)C[C@@H]5C)C(O)C(O)C1O` (stereo not given in full): the GI50 was 12.1 µM with BT-549 breast; 10.6 µM with DU-145 prostate; 1.06 µM in the assay on MCF7 breast; 8.36 µM in the assay on MDA-MB-435; 16.4 µM with NCI/ADR-RES ovarian. Further, the TGI with BT-549 breast stood at 24.5 µM; in the assay on DU-145 prostate it was 22.8 µM; in the assay on MCF7 breast, 6.03 µM; in the assay with MDA-MB-435, 22.4 µM; in the assay with NCI/ADR-RES ovarian, 31.1 µM.
Turning to `O=C(O)c1c(Cl)c(Cl)c(Cl)c(Cl)c1-c1c2cc(I)c(=O)c(I)c-2oc2c(I)c(O)c(I)cc12`, the GI50 is 26.9 µM and 35.9 µM with BT-549 breast; 37.2 µM in the assay with DU-145 prostate; 83.5 µM in the assay with MCF7 breast; 62.9 µM and 41.4 µM with MDA-MB-435; above 200 µM with NCI/ADR-RES ovarian. The TGI with BT-549 breast is 82.6 µM and 83.2 µM; in the assay with DU-145 prostate, 94.3 µM; in the assay with MCF7 breast, above 200 µM; in the assay on MDA-MB-435, 93 µM; in the assay with NCI/ADR-RES ovarian it was above 200 µM.
Regarding `COc1cc(C(=O)c2c(-c3ccccc3)oc3ccccc23)cc(OC)c1O`, the GI50 in the assay with BT-549 breast was 1.39 µM; in the assay on DU-145 prostate, 3.15 µM; in the assay with MCF7 breast, 0.399 µM; in the assay on MDA-MB-435, 0.285 µM; in the assay on NCI/ADR-RES ovarian, 0.876 µM. In addition, the TGI came out at 7.82 µM with BT-549 breast; 13.6 µM in the assay with DU-145 prostate; 16 µM with MCF7 breast; 0.777 µM in the assay with MDA-MB-435; 20 µM with NCI/ADR-RES ovarian.
Turning to `O=C(/C=C/c1cccs1)Nc1ncc(Cc2ccccc2F)s1`, the concentration for total growth inhibition (TGI) was above 100 µM in the assay with BT-549 breast; above 100 µM with DU-145 prostate; above 100 µM in the assay with MCF7 breast; 0.113 µM in the assay on MDA-MB-435; above 100 µM in the assay with NCI/ADR-RES ovarian. Also, the GI50 in the assay on DU-145 prostate is 0.3 µM; in the assay with MCF7 breast, 0.318 µM; with MDA-MB-435, 0.0312 µM; with NCI/ADR-RES ovarian, 0.246 µM.
On to `Nc1ccccc1C#Cc1ccccc1C#CCCCCO`, for which the GI50 was 23.2 µM with BT-549 breast; 28.2 µM with DU-145 prostate; 60.8 µM in the assay on MCF7 breast; 10.3 µM with MDA-MB-435; 14.4 µM in the assay on NCI/ADR-RES ovarian. The TGI in the assay on BT-549 breast was 76.5 µM; in the assay with DU-145 prostate it was above 100 µM; in the assay with MCF7 breast it was above 100 µM; in the assay on MDA-MB-435, 53.9 µM; in the assay on NCI/ADR-RES ovarian, 39.4 µM.
`C=C(C)[C@@H]1CC[C@]2(C#N)CC[C@]3(C)[C@H](CC[C@@H]4[C@@]5(C)CCCNC(C)(C)[C@@H]5CC[C@]43C)[C@@H]12`: the GI50 in the assay with BT-549 breast was 1.75 µM; in the assay with DU-145 prostate it was 1.85 µM; in the assay on MCF7 breast, 1.53 µM; with MDA-MB-435, 1.92 µM; with NCI/ADR-RES ovarian, 1.89 µM. Moreover, the TGI with BT-549 breast came out at 3.42 µM; in the assay with DU-145 prostate, 3.48 µM; in the assay with MCF7 breast, 2.91 µM; in the assay with MDA-MB-435, 3.78 µM; with NCI/ADR-RES ovarian, 3.63 µM.
With `CCOC(=O)c1cc2cc([N+](=O)[O-])ccc2oc1=O`, the TGI with BT-549 breast, in the assay on DU-145 prostate, with MCF7 breast, in the assay on MDA-MB-435 and with NCI/ADR-RES ovarian was above 100 µM each time.
For `O=C(N/N=C\c1cc(Cl)ccc1O)N/N=C/c1cc(Cl)ccc1O`, the GI50 with BT-549 breast is above 100 µM; in the assay with DU-145 prostate, above 100 µM; in the assay with MCF7 breast, 3.12 µM; in the assay on MDA-MB-435 it was 1.36 µM; in the assay on NCI/ADR-RES ovarian it was 2.48 µM. Moreover, the TGI in the assay on BT-549 breast, in the assay with DU-145 prostate, with MCF7 breast, in the assay with MDA-MB-435 and in the assay on NCI/ADR-RES ovarian was above 100 µM each time.
`C/C(=N\n1c(N)c(C#N)c(-c2ccc(Cl)cc2)c(C#N)c1=O)c1cccnc1`: the GI50 in the assay on DU-145 prostate, with MCF7 breast, in the assay with MDA-MB-435 and in the assay with NCI/ADR-RES ovarian was above 100 µM throughout. The TGI with DU-145 prostate, in the assay with MCF7 breast, in the assay on MDA-MB-435 and in the assay with NCI/ADR-RES ovarian was above 100 µM in each case.
Take `NC(=O)c1ccc(-c2c3ccccc3cc3c2ccc2ccccc23)cc1`: the GI50 was 4.4 µM with DU-145 prostate, 1.88 µM in the assay with MCF7 breast, 0.382 µM in the assay on MDA-MB-435 and 1.65 µM in the assay with NCI/ADR-RES ovarian. The TGI in the assay on DU-145 prostate amounted to 26.2 µM; in the assay on MCF7 breast, 11.6 µM; with MDA-MB-435, 3.51 µM; in the assay with NCI/ADR-RES ovarian, 18.1 µM.
